Results on 1 cell line are retold here after the supplement of paper PMC10307832.

What all share (assay): relative viability (nuclei count vs DMSO), 5 days (fraction); higher = more cells survive
Compound in test [1]: C1CC1C(=O)NC2=NNC3=C2C=CC(=C3)C4=CC(=CC=C4)C(=O)NC5CC5 [XMD13-2] + N=C(N)NC(=N)NCCc1ccccc1 [Phenformin] (partner 250 µM)
The method in brief: (§1)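 Relative viability divides the nuclei count in treated wells by that in vehicle wells. Lung cancer cell lines were seeded in 1536-well plates, dosed by pin tool the next day, and fixed and stained after 5 days in one step with final 0.05% Triton X-100, 1% formaldehyde and 1 ug/ml Hoechst. Dosing was a single drug or a fixed anchor-drug dose plus five library-drug doses (not always all listed) in √10 steps, and values are medians of duplicate plates imaged at 4×.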

Compound in test [2]: C1CC1C(=O)NC2=NNC3=C2C=CC(=C3)C4=CC(=CC=C4)C(=O)NC5CC5 [XMD13-2] + O=C(CCCCCCC(=O)Nc1ccccc1)NO [Vorinostat] (partner 1 µM)
The method in brief:
as §1

Compound in test [3]: Cc1nc(Nc2ncc(C(=O)Nc3c(C)cccc3Cl)s2)cc(N2CCN(CCO)CC2)n1 [Dasatinib] + C[C@]1(O)C[C@@H](c2nc(-c3ccc4ccc(-c5ccccc5)nc4c3)c3c(N)nccn32)C1 [Linsitinib] (partner 1 µM)
The method in brief: as §1

Compound in test [4]: Cc1nc(Nc2ncc(C(=O)Nc3c(C)cccc3Cl)s2)cc(N2CCN(CCO)CC2)n1 [Dasatinib] + Cc1nc(NC(=O)N2CCC[C@H]2C(N)=O)sc1-c1ccnc(C(C)(C)C(F)(F)F)c1 [Alpelisib] (partner 2 µM)
The method in brief:
as §1

Consider UMC-11, for which the relative viability in test [1] (first compound 0.05 µM) is 0.362; in test [1] (first compound 0.1581 µM), 0.314; in test [1] (first compound 0.5 µM) it was 0.337; in test [1] (first compound 1.581 µM), 0.317; in test [1] (first compound 5 µM), 0.285; in test [2] (first compound 0.05 µM) it was 0.356. Further, the relative viability stood at 0.413 in test [2] (first compound 0.1581 µM); 0.459 in test [2] (first compound 0.5 µM); 0.396 in test [2] (first compound 1.581 µM); 0.318 in test [2] (first compound 5 µM); 0.911 in test [3] (first compound 0.005 µM); 0.827 in test [3] (first compound 0.01581 µM). The relative viability stood at 0.543 in test [3] (first compound 0.05 µM); 0.342 in test [3] (first compound 0.1581 µM); 0.319 in test [3] (first compound 0.5 µM); 0.988 in test [4] (first compound 0.005 µM); 0.768 in test [4] (first compound 0.01581 µM); 0.752 in test [4] (first compound 0.05 µM). The relative viability amounted to 0.347 in test [4] (first compound 0.1581 µM) and 0.264 in test [4] (first compound 0.5 µM).
